Data published in patent publication US5099015A, “Trifluoromethyl 1-carba(1-dethia)cephems” (Eli Lilly and Company, priority 1991, dated 1992).
Values after ≈ are worked out from the molar mass of the structure shown. Like-named read-outs stand apart in the source and are kept apart here.

Key:
Experiment in all cases: Agar dilution antibacterial test (MIC)
Type in all cases: cell-based
[1] = test system: Klebsiella pneumoniae X68
Experimental: (§1) Fresh overnight cultures of test bacteria were diluted to approximately 1x(10)4 cells/microliter and applied in one microliter volumes to the surfaces of the agar plates. The innoculated plates were incubated overnight at 35° C. in ambient air. Minimum inhibitory concentration (mic) endpoints were recorded as the lowest antibiotic concentrations in micrograms per milliliter that inhibited the development of visible growth on the plates. The following summarizes the results of such tests with the compounds of the examples listed above.

[2] = test system: Klebsiella pneumoniae KAE
Experimental: as §1

[3] = test system: Staphylococcus aureus S13E
Experimental: as §1

Proteus incon PR33 = test system: Proteus incon PR33
Experimental: as §1

[4] = test system: Staphylococcus aureus X400
Experimental: as §1

[5] = test system: Staphylococcus epidermidis EPI270
Experimental: as §1

Proteus rett C24 = conditions: Proteus rett C24
Experimental: as §1

Enterococcus faecium X66 = test system: Enterococcus faecium X66
Experimental: as §1

Salmonella X514 = test system: Salmonella X514
Experimental: as §1

Enterobacter cloacae EB5 = test system: Enterobacter cloacae EB5
Experimental: as §1

Serratia X99 = test system: Serratia X99
Experimental: as §1

Morg morg PR15 = test system: Morg morg PR15
Experimental: as §1

[6] = test system: Enterococcus faecalis 2041
Experimental: as §1

[7] = test system: Enterobacter aerogenes C32
Experimental: as §1

[8] = test system: Haemophilus influenzae C.L.
Experimental: as §1

[9] = test system: Staphylococcus epidermidis 222
Experimental: as §1

[10] = test system: Enterobacter cloacae 265A
Experimental: as §1

[11] = test system: Staphylococcus aureus V41
Experimental: as §1

Escherichia coli EC14 = test system: Escherichia coli EC14
Experimental: as §1

[12] = test system: Staphylococcus aureus NRRL X1.1
Experimental: as §1

[13] = test system: Haemophilus influenzae 76
Experimental: as §1

Escherichia coli N10 = test system: Escherichia coli N10
Experimental: as §1

[14] = test system: Staphylococcus pyogenes C203
Experimental: as §1

Serratia SE3 = test system: Serratia SE3
Experimental: as §1

Shig sonn. N9 = test system: Shig sonn. N9
Experimental: as §1

[15] = test system: Enterobacter aerogenes EB17
Experimental: as §1

Acom AC12 = test system: Acom AC12
Experimental: as §1

Escherichia coli TEM = test system: Escherichia coli TEM
Experimental: as §1

Citro CF17 = test system: Citro CF17
Experimental: as §1

Salmonella 1335 = test system: Salmonella 1335
Experimental: as §1

[16] = test system: Klebsiella pneumoniae X26
Experimental: as §1

[17] = test system: Staphylococcus pneumoniae Park 1
Experimental: as §1

[18] = Klebsiella aerogenes, read-out: MIC

## N[C@@H](C(=O)N[C@@H]1C(=O)N2C(C(=O)O)=C(C(F)(F)F)CC[C@H]12)c1ccc(F)cc1 [Compound 3, [6R,7S]-7-β-[D-α-(amino)-4-fluorophenylacetylamino]-3-trifluoromethyl-1-carba-1-dethia-3-cephem-4-carboxylic acid]
[1]; read-out: MIC
  MIC: 1 mg/L (≈ 2.49 µM)
[2]; read-out: MIC
  MIC: 8 mg/L (≈ 19.9 µM)
[3]
  MIC: 32 mg/L (≈ 79.7 µM)
Proteus incon PR33; read-out: MIC
  MIC: 8 mg/L (≈ 19.9 µM)
[4]; read-out: MIC
  MIC: 64 mg/L (≈ 159 µM)
[5]; read-out: MIC
  MIC: 4 mg/L (≈ 9.97 µM)
Proteus rett C24; read-out: MIC
  MIC: 8 mg/L (≈ 19.9 µM)
Enterococcus faecium X66; read-out: MIC
  MIC: 32 mg/L (≈ 79.7 µM)
Salmonella X514; read-out: MIC
  MIC: 0.5 mg/L (≈ 1.25 µM)
Enterobacter cloacae EB5; read-out: MIC
  MIC: 8 mg/L (≈ 19.9 µM)
Serratia X99; read-out: MIC
  MIC: 16 mg/L (≈ 39.9 µM)
Morg morg PR15; read-out: MIC
  MIC: 16 mg/L (≈ 39.9 µM)
[6]; read-out: MIC
  MIC: 32 mg/L (≈ 79.7 µM)
[7]; [18]
  MIC: 8 mg/L (≈ 19.9 µM)
[8]; read-out: MIC
  MIC: 0.5 mg/L (≈ 1.25 µM)
[9]; read-out: MIC
  MIC: 4 mg/L (≈ 9.97 µM)
[10]; read-out: MIC
  MIC: 8 mg/L (≈ 19.9 µM)
[11]; read-out: MIC
  MIC: 16 mg/L (≈ 39.9 µM)
Escherichia coli EC14; read-out: MIC
  MIC: 1 mg/L (≈ 2.49 µM)
[12]; NRRLX1.1, read-out: MIC
  MIC: 1 mg/L (≈ 2.49 µM)
[13]; read-out: MIC
  MIC: 1 mg/L (≈ 2.49 µM)
Escherichia coli N10; read-out: MIC
  MIC: 4 mg/L (≈ 9.97 µM)
[14]; read-out: MIC
  MIC: 0.06 mg/L (≈ 0.15 µM)
Serratia SE3; read-out: MIC
  MIC: 32 mg/L (≈ 79.7 µM)
Shig sonn. N9; read-out: MIC
  MIC: 2 mg/L (≈ 4.98 µM)
[15]; [18]
  MIC: 8 mg/L (≈ 19.9 µM)
Acom AC12; read-out: MIC
  MIC: 64 mg/L (≈ 159 µM)
Escherichia coli TEM; read-out: MIC
  MIC: 1 mg/L (≈ 2.49 µM)
Citro CF17; read-out: MIC
  MIC: 8 mg/L (≈ 19.9 µM)
Salmonella 1335; read-out: MIC
  MIC: 2 mg/L (≈ 4.98 µM)
[16]; read-out: MIC
  MIC: 0.5 mg/L (≈ 1.25 µM)
[17]; PARK1, read-out: MIC
  MIC: 0.25 mg/L (≈ 0.623 µM)

## CCS(=O)(=O)Nc1cccc(C(N)C(=O)N[C@@H]2C(=O)N3C(C(=O)O)=C(C(F)(F)F)CC[C@H]23)c1 (stereo partly shown) [Compound 6]
[1]
  MIC: 1 mg/L (≈ 2.04 µM)
[2]
  MIC: 32 mg/L (≈ 65.2 µM)
[3]
  MIC: 32 mg/L (≈ 65.2 µM)
Proteus incon PR33
  MIC: 16 mg/L (≈ 32.6 µM)
[4]
  MIC: 32 mg/L (≈ 65.2 µM)
[5]
  MIC: 8 mg/L (≈ 16.3 µM)
Proteus rett C24
  MIC: 32 mg/L (≈ 65.2 µM)
Enterococcus faecium X66
  MIC: 64 mg/L (≈ 130 µM)
Salmonella X514
  MIC: 1 mg/L (≈ 2.04 µM)
Enterobacter cloacae EB5
  MIC: 32 mg/L (≈ 65.2 µM)
Serratia X99
  MIC: 64 mg/L (≈ 130 µM)
Morg morg PR15
  MIC: 16 mg/L (≈ 32.6 µM)
[6]
  MIC: 32 mg/L (≈ 65.2 µM)
[7]
  MIC: 16 mg/L (≈ 32.6 µM)
[8]
  MIC: 1 mg/L (≈ 2.04 µM)
[9]
  MIC: 4 mg/L (≈ 8.16 µM)
[10]
  MIC: 32 mg/L (≈ 65.2 µM)
[11]
  MIC: 8 mg/L (≈ 16.3 µM)
Escherichia coli EC14
  MIC: 1 mg/L (≈ 2.04 µM)
[12]
  MIC: 4 mg/L (≈ 8.16 µM)
[13]
  MIC: 4 mg/L (≈ 8.16 µM)
Escherichia coli N10
  MIC: 8 mg/L (≈ 16.3 µM)
[14]
  MIC: 0.06 mg/L (≈ 0.122 µM)
Serratia SE3
  MIC: 128 mg/L (≈ 261 µM)
Shig sonn. N9
  MIC: 4 mg/L (≈ 8.16 µM)
[15]
  MIC: 16 mg/L (≈ 32.6 µM)
Acom AC12
  MIC: 64 mg/L (≈ 130 µM)
Escherichia coli TEM
  MIC: 1 mg/L (≈ 2.04 µM)
Citro CF17
  MIC: 32 mg/L (≈ 65.2 µM)
Salmonella 1335
  MIC: 8 mg/L (≈ 16.3 µM)
[16]
  MIC: 0.25 mg/L (≈ 0.51 µM)
[17]
  MIC: 0.125 mg/L (≈ 0.255 µM)
